This is an account of results in ChEMBL document CHEMBL1135876, “N-alkylaminoacids and their derivatives interact with melanocortin receptors” (Bioorg Med Chem Lett, 2002).

Assay [1] addresses T1, Melanocortin receptor 5 (Homo sapiens, UniProt P33032). The assay is described as follows: Binding affinity in competition with [125I]NDP-MSH on recombinant melanocortin 5 receptor.
Assay [2] addresses Melanocortin receptor 4 (Homo sapiens, UniProt P32245). Put plainly: Binding affinity in competition with [125I]NDP-MSH on recombinant melanocortin 4 receptor.
Assay [3] deals with T2, Melanocyte-stimulating hormone receptor (Homo sapiens, UniProt Q01726). The assay is described as follows: Binding affinity in competition with [125I]NDP-MSH on recombinant melanocortin 1 receptor.
T2 sequence (Q01726 whole entry): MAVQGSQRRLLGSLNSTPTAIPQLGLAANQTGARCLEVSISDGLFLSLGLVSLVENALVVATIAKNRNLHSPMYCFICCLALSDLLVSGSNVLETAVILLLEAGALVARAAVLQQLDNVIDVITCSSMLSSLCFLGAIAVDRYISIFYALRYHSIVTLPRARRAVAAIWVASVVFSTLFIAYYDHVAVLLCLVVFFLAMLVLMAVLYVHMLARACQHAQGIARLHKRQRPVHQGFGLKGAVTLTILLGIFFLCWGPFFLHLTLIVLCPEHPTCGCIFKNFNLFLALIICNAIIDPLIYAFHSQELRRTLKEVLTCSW
For assay [4], the target named is Melanocortin receptor 3 (Homo sapiens, UniProt P41968). Put plainly: Binding affinity in competition with [125I]NDP-MSH on recombinant melanocortin 3 receptor.
Sequence of Melanocortin receptor 3 (P41968 whole entry): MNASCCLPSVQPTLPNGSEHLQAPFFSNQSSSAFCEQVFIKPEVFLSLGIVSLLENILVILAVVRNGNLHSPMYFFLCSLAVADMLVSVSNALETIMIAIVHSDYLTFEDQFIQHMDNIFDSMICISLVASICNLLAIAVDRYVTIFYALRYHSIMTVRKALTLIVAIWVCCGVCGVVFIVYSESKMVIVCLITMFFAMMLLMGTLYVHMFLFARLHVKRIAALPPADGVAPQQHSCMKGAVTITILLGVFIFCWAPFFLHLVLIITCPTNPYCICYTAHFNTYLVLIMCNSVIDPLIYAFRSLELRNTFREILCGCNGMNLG
Assay [5] concerns the target T1, Melanocortin receptor 5. The assay is described as follows: Tested for its binding affinity in competition with [125I]NDP-MSH on recombinant Melanocortin 5 receptor; nb = no binding.
In assay [6] the target is T2, Melanocyte-stimulating hormone receptor. Put plainly: Tested for its binding affinity in competition with [125I]NDP-MSH on recombinant human Melanocortin 1 receptor; nb = no binding.

pKi: −log10 of the molar value. Bounds are passed on as bounds.

Sequence of Melanocortin receptor 4 (P32245 whole entry): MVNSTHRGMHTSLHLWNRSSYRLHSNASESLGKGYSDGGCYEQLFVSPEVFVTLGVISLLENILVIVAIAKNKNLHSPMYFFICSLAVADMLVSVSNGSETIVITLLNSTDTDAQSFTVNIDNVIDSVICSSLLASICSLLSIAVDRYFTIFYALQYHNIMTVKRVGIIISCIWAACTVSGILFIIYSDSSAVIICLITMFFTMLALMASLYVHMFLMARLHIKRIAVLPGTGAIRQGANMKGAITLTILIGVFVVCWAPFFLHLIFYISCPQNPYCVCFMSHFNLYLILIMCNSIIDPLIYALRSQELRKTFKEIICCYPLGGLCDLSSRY
T1 sequence (P33032 whole entry): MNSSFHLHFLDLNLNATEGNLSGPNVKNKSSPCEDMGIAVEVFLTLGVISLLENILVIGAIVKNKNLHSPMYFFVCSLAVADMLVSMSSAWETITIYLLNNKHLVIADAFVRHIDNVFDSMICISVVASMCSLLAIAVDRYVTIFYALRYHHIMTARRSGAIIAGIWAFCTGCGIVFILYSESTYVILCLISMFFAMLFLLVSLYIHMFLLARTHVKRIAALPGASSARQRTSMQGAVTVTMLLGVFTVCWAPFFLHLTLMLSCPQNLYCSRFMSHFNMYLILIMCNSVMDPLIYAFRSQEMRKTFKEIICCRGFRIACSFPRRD

One may read the pKi as the negative decadic logarithm of the Ki, by convention in mol/L. Regarding `NC(N)=NCCCC(NCc1c[nH]c2ccccc12)C(=O)O` (centres undefined), the pKi in assay [1], in assay [2], in assay [3] and in assay [4] was less than 6.00 throughout.

As for `N=C(N)NCCC[C@H](NCc1ccc2ccccc2c1)C(=O)Nc1cccc2ccccc12`, the negative-log Ki (pKi) in assay [1] was 5.06; in assay [2], 5.17; in assay [3] it was 5.89; in assay [4], 5.19.

`NC(N)=NCCCNC(=O)[C@@H]1C[C@H](O)CN1Cc1ccc2ccccc2c1`: the pKi is 3.66 in assay [1], 3.55 in assay [2], 5.54 in assay [3] and 4.09 in assay [4].

Turning to `C=CCOC(=O)[C@H](CCCNC(=N)N)NCc1ccc2ccccc2c1`, the pKi is 4.82 in assay [1], 4.82 in assay [2], 5.23 in assay [3] and 4.55 in assay [4].

Regarding `N=C(N)NCCC[C@H](NCc1ccc2ccccc2c1)C(=O)Nc1ccc2ccccc2c1`, the negative logarithm of the Ki (pKi) in assay [1] was 5.18; in assay [2] it was 4.85; in assay [3] it was 5.54; in assay [4] it was 4.85.

With `NC(N)=NCCC[C@@H](NCc1c[nH]c2ccccc12)C(=O)O`, the negative logarithm of the Ki (pKi) in assay [1], in assay [2], in assay [3] and in assay [4] was less than 6.00 each time.

As to `COc1ccc(CN[C@H](CCCNC(=N)N)C(=O)O)c(Cl)c1OC`, the pKi in assay [1], in assay [2], in assay [3] and in assay [4] was less than 6.00 throughout.

On to `COc1ccc(CN[C@H](CCCNC(=N)N)C(=O)O)cc1OC`, for which the pKi in assay [1], in assay [2], in assay [3] and in assay [4] was less than 6.00 in each case.

Take `COc1ccc(CNC(CCCN=C(N)N)C(=O)O)cc1OC` (centres undefined): the pKi in assay [1], in assay [2], in assay [3] and in assay [4] was less than 6.00 in each case.

As for `O=C(NCc1ccc2ccccc2c1)[C@H]1CCCN1CCc1c[nH]c2ccccc12`, the Ki result in assay [5] and in assay [6] was “Not Active” in each case. The pKi was 3.78 in assay [2] and 3.12 in assay [4].

Turning to `N=C(N)NCCC[C@@H](NCc1ccc2ccccc2c1)C(N)=O`, the pKi in assay [1] was 3.90; in assay [2] it was less than 3.00; in assay [3] it was less than 3.00; in assay [4], less than 3.00.

With `N=C(N)NCCC[C@H](NCc1c[nH]c2ccccc12)C(=O)N[C@@H](Cc1c[nH]c2ccccc12)C(N)=O`, the pKi was 3.74 in assay [1], 3.69 in assay [2], less than 3.00 in assay [3] and less than 3.00 in assay [4].

`N=C(N)NCCC[C@H](NCc1c[nH]c2ccccc12)C(N)=O`: the pKi in assay [1], in assay [2], in assay [3] and in assay [4] was less than 6.00 each time.

`N=C(N)NCCC[C@H](NCc1ccc2ccccc2c1)C(N)=O`: the pKi in assay [1], in assay [2], in assay [3] and in assay [4] was less than 6.00 throughout.

Turning to `N=C(N)NCCCNC(=O)[C@H](CCCN=C(N)N)NCc1ccc2ccccc2c1`, the Ki entry in assay [5] is “Not Active”. Moreover, the pKi in assay [2] was 4.52; in assay [3], 5.35; in assay [4] it was 5.32.

As to `NC(=O)[C@H](Cc1ccc2ccccc2c1)NCc1c[nH]c2ccccc12`, the pKi in assay [1] was 4.22; in assay [2] it was less than 3.00; in assay [3], 4.59; in assay [4] it was less than 3.00.

For `N=C(N)NCCC[C@@H](NCc1ccc2ccccc2c1)C(=O)N[C@@H](Cc1c[nH]c2ccccc12)C(N)=O`, the pKi in assay [1] is 4.25; in assay [2] it was 4.25; in assay [3], 4.49; in assay [4], 3.83.

Take `N=C(N)NCCC[C@H](NCC1CCc2ccccc2C1)C(N)=O` (some centres undefined): the pKi in assay [1] is 3.89; in assay [2] it was 3.87; in assay [3] it was less than 3.00; in assay [4], 3.81.

As to `N=C(N)NCCC[C@H](NCc1ccc2ccccc2c1)C(=O)N[C@@H](Cc1c[nH]c2ccccc12)C(N)=O`, the pKi was 4.13 in assay [1], 3.98 in assay [2], 4.54 in assay [3] and 3.97 in assay [4].

Take `N=C(N)NCCC[C@@H](NCc1c[nH]c2ccccc12)C(N)=O`: the pKi in assay [1], in assay [2], in assay [3] and in assay [4] was less than 6.00 each time.

Consider `COc1ccc(CN[C@@H](CCCNC(=N)N)C(N)=O)c(Cl)c1OC`, for which the pKi in assay [1], in assay [2], in assay [3] and in assay [4] was less than 6.00 in each case.

With `O=C(NCCc1c[nH]cn1)[C@@H]1C[C@H](O)CN1Cc1ccc2ccccc2c1`, the pKi in assay [1] is 4.30; in assay [2] it was 3.82; in assay [4], 3.79. Further, the Ki entry in assay [6] is recorded as “Not Active”.

For the compound `NC(=O)[C@@H](Cc1c[nH]c2ccccc12)NCc1ccc2ccccc2c1`, the negative logarithm of the Ki (pKi) in assay [1] is 4.43; in assay [2], 4.19; in assay [3] it was 4.82; in assay [4], 4.28.

With `NC(=O)[C@@H](Cc1ccc2ccccc2c1)NCc1c[nH]c2ccccc12`, the pKi was 4.02 in assay [1], less than 3.00 in assay [2], 4.13 in assay [3] and less than 3.00 in assay [4].

With `COc1ccc(CN[C@@H](CCCN=C(N)N)C(N)=O)cc1OC`, the pKi in assay [1], in assay [2], in assay [3] and in assay [4] was less than 6.00 each time.

Take `NC(=O)[C@H](Cc1c[nH]c2ccccc12)NCc1ccc2ccccc2c1`: the pKi in assay [1] is 4.38; in assay [2], 3.86; in assay [3], 5.06; in assay [4], 4.25.
